Here are results for three compounds from US6537980B1, “Vitamin D analogues and their pharmaceutical use” (Leo Pharmaceutical Products Ltd., priority 1999, dated 2003).

One data set has as its system rats. The data set can be described thus: Calcemic activity in rats in vivo. Particulars: for Calc. rel.: calcemic activity in rats relative to 1,25(OH)2D3, >1 = more active. The arrangement: species or system rat. The source says: Generally, the classical effects of 1,25(OH)2D3 on the calcium balance in the organism, including calcemic and calciuric activities, are unwanted in the vitamin D analogues of the present invention, in which selectivity for e.g. inhibition of the proliferation of certain cells, absence of calcemic effects and skin irritation is desired.

In the next data set the test system is hairless guinea pigs. The data set can be described thus: Skin irritation, occlusive patch test in hairless guinea pigs. Type of data set: in vivo, guinea pig. Also on record: key to Skin irritation score: 0: Substances of no irritation; +: Substances of doubtful or very low irritancy compared to calcitriol; ++: Substances of low irritancy compared to calcitriol; +++: Substances with irritances in the same range as calcitriol; ++++: Substances of more irritancy than calcitriol; +++++: Very irritative substances compared to calcftriol. Particulars: for Skin irritation score: occlusive patch 48 hours, 500, 50 and 5 μg/ml, clinical grading, LDPI, erythema. As for the experimental part: Skin irritation was assessed in hairless guinea pigs. Randomised occlusive patch testing for 48 hours was used. Each analogue was tested at three dose levels (500 μg/ml, 50 μg/ml, and 5 μg/ml) and a placebo solution was also included. Assessment of skin irritation was blinded and based upon clinical grading and objective measurement of cutaneous blood flow (laser Doppler perfusion imaging, LDPI) and erythema (Minolta ChromaMeter). Furthermore, epidermal thickness as an indication of epidermal hyperplasia was measured.
The irritancy scores were as defined below:
0 Substances of no irritation
+ Substances of doubtful or very low irritancy compared to calcitriol
++ Substances of low irritancy compared to calcitriol
+++ Substances with irritances in the same range as calcitriol
++++ Substances of more irritancy than calcitriol
+++++ Very irritative substances compared to calcftriol

Data set [1] relates to HaCaT human skin keratinocyte cell line. Nature of the data set: HaCaT antiproliferative assay measuring 3H-thymidine uptake. The class given is cell-based. Particulars: for HaCaT rel.: relative to 1,25(OH)2D3, ratio IC50 of 1,25(OH)2D3 / IC50 of compound, 3H-thymidine incorporation, >1 = more active. The source says:
An assay for the rating of test compounds for antiproliterative activity in skin cells, e.g. antipsoriatic effect, is the in vitro assay using HaCaT, a spontaneously immortalised, non-tumorigenic human skin keratinocyte cell line (Mørk Hansen, C. et al., J. Invest. Dermatol 1, 44-48 (1996)), measuring ^3H -thymidine uptake.

Another data set addresses T1, vitamin D receptor (Homo sapiens, UniProt P11473).
T1 sequence (P11473 1-427): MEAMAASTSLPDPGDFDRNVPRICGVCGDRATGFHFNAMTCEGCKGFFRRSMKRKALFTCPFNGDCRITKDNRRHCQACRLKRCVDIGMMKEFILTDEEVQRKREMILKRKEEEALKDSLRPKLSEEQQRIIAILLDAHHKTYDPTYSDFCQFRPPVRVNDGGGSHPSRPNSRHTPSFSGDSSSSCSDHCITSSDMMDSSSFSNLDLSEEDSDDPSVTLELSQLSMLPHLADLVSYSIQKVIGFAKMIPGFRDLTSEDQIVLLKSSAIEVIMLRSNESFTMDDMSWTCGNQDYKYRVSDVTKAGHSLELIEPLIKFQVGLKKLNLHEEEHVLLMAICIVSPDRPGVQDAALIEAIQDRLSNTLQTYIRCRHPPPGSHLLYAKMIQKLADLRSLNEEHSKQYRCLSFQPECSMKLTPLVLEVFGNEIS
Nature of the data set: Binding to the vitamin D receptor in vitro, relative to Calcitriol. The note with it: relative to 1,25(OH)2D3; ratio IC50 of 1,25(OH)2D3 / IC50 of compound; >1 = more active.

“Also recorded” adds a separate entry of the source.

As to `C=C1/C(=C\C=C2/CCC[C@]3(C)[C@@H]([C@H](C)/C=C/[C@@H](O)C4CC4)CC[C@@H]23)C[C@@H](O)C[C@@H]1O` [Calcipotriol, reference compound], the Calc. rel. in the data set with rats is reported as 0.005. In addition, in the data set on hairless guinea pigs, the Skin irritation score entry was “+++”. In data set [1], the HaCaT rel. turned out to be 2.

Turning to `C=C1/C(=C\C=C2/CCC[C@]3(C)[C@@H]([C@H](C)CCCC(C)(C)O)CC[C@@H]23)C[C@@H](O)C[C@@H]1O` [Calcitriol, 1α,25-dihydroxy-vitamin D3, reference compound], in the data set on rats, the Calc. rel. is reported as 1. Moreover, the Skin irritation score result with hairless guinea pigs is “+++”. Further, in data set [1], the HaCaT rel. is 1.

With `C=C1C(=CC=C2CCCC3(C)C2CCC3C(C)COCc2cccc(C(C)(C)O)c2)CC(O)CC1O` [Compound 100, 1(S),3(R)-Dihydroxy-20(R)-[((3-(2-hydroxy-2-propyl)-phenyl)-methoxy)-methyl]-9,10-seco-pregna-5(Z),7(E),10(19)-triene], on vitamin D receptor, the Receptor binding rel. came out at 0.01. Further, the Calc. rel. in the data set on rats is on record as 0.001. In addition, the “calcemic activity (in words)” value in the data set on rats (rats in vivo, compared with prior art compounds) was “very low calcemic activity; also recorded: negligible”. Further, the “skin irritation (in words)” value with hairless guinea pigs (compared with prior art compounds) is listed as “considerably less skin irritation than compounds of the prior art”. For the same compound, in the data set on hairless guinea pigs, the Skin irritation score entry is “+”. Further, in data set [1] (HaCaT, compared with Calcitriol / 1,25(OH)2D3), the “antiproliferative activity in skin cells (in words)” value is “same potency as the compound Calcitriol”. Also, the HaCaT rel. in data set [1] stood at 1.
